# Measurements taken from patent publication US20220372013A2, “PIPERIDINE-2,6-DIONE DERIVATIVES AND CROHN'S DISEASE TREATING” (Tianjin Hemay Pharmaceutical Sci-Tech Co., Ltd, priority 2016, published 2022).
# Where two headings read alike, the source gives them in different places. Marks after values point to notes of the source that are not given here.
# Experiments:
# mice = assay: Biological Example 5: acute toxicity experiment of single oral administration in mice; format: in vivo; details: single oral 1000 mg/Kg, Mean ± SD
# Experimental: The mice were fasted one day before the experiment. On the day of the experiment, 6 mice (ICR mice, body weight of 19-21 g, three females and three males) were selected in each experiment group. First of all, one female and one male were selected to orally give 1000 mg/Kg, and observed for 5-10 minutes. If there were no obvious side effects, the remaining 4 animals were orally given the same dose, and observed for 10-15 minutes. If no animal died, the animals were placed in a box to balancedly feed for 7 days. The state was observed and the body weight was recorded daily.
# Observation Indexes within 0-15 Minutes after Administration
# Activity: restlessness, hyperactivity
# Nervous system response: tremor, spasm, convulsion, ataxia, posture abnormality, etc.
# Autonomic nerve: exophthalmos, salivation, tears, urination (hematuria), diarrhea, piloerection, breathing, etc.
# State of Animal: lethargy, hyperactivity, excitement, hair loss, diarrhea, abnormal behavior, death, etc.
# [1] = tested on: DNBS-Induced Inflammatory Bowel Disease Models in Rats; assay: Biological Example 4: DNBS-induced inflammatory bowel disease models in rats; format: in vivo, Wistar rats; details: 30 mg/Kg i.g. qd × 7; for Adhesion Degree of Colon / Colon weight to length ratio / Ulcer area of colon / inhibition in vivo at 30 mg/kg: day 7; for Body weight: Mean ± SD; for inhibition in vivo at 30 mg/kg: Rattus norvegicus, po, 168 h
# Experimental: 102 male Wistar rats were fasted for 72 hours. A 5% glucose injection was administered subcutaneously twice during fasting. 88 rats with normal conditions and moderate body weight were selected from the fasting rats. The animals were randomly divided into 11 groups according to the body weight (see Table 11. Grouped Table).
# The animals were anesthetized with ether after 72 hours fasting. A specially made gavage device was slowly inserted into the enteric cavity at 8 cm from the anus. The model control group and each test group were administered with 0.5 mL of 50 mg/mL DNBS in 30% ethanol solution. The normal control group was administered with 0.5 mL of 30% ethanol solution. The animals were inverted in anesthesia for 15 minutes. The day when the model was prepared was day 0 of the experiment. After 4 hours of DNBS induction, the corresponding drug or the corresponding volume of 1% CMC-Na was administered once per day. On day 7 of the experiment, the animals were euthanized to score the colon adhesion degree, measure the length of colon and ulcer area, weigh colon and calculate the colon weight to length ratio.
# One-way ANOVA analysis of the length of colon and colon weight per length of rats was performed by SPSS22. Statistical analyses between groups were performed. The adhesion degree was scored. Mann-Whitney U non-parametric test was performed on ulcer area. Statistical analyses between groups were performed.
# Calculation Formula of Inhibitory rate of weight increase per length: (Colon weight to length ratio in model group−Colon weight to length ratio in administration group)/(Colon weight to length ratio in model group−Colon weight to length ratio in blank group)
# [2] = read-out: Inhibitory rate of colon adhesion
# [3] = read-out: Inhibitory rate of ulcer area of colon
# [4] = read-out: Inhibitory rate of weight increase per length
SMILES,"Daily Body Weight (mice; Female mice, Day 1) [g]","Daily Body Weight (mice; Female mice, Day 2) [g]","Daily Body Weight (mice; Female mice, Day 3) [g]","Daily Body Weight (mice; Female mice, Day 4) [g]","Daily Body Weight (mice; Female mice, Day 5) [g]","Daily Body Weight (mice; Female mice, Day 6) [g]","Daily Body Weight (mice; Female mice, Day 7) [g]","Daily Body Weight (mice; Male mice, Day 1) [g]","Daily Body Weight (mice; Male mice, Day 2) [g]","Daily Body Weight (mice; Male mice, Day 3) [g]","Daily Body Weight (mice; Male mice, Day 4) [g]","Daily Body Weight (mice; Male mice, Day 5) [g]","Daily Body Weight (mice; Male mice, Day 6) [g]","Daily Body Weight (mice; Male mice, Day 7) [g]",Adhesion Degree of Colon [1] [point],Colon weight to length ratio [1] [mg/cm],Ulcer area of colon [1],Body weight ([1]; Day 1) [g],Body weight ([1]; Day 2) [g],Body weight ([1]; Day 3) [g],also measured
"COCCN1C(=O)CCC(N2C(=O)c3ccc(O)c(N)c3C2=O)C1=O (stereo not drawn) [Example 8, 4-amino-5-hydroxy-2-(1-(2-methoxyethyl)-2,6-dioxopiperidin-3-yl)isoindolin-1,3-dione]",18.9 ± 0.9,22.9 ± 0.9,24.3 ± 0.7,24.3 ± 1.1,25.3 ± 1.4,25.8 ± 1.5,26.0 ± 2.5,18.0 ± 1.3,23.1 ± 0.9,24.6 ± 1.0,25.6 ± 1.7,27.2 ± 2.2,28.2 ± 2.2,29.2 ± 2.6,0.9 ± 0.6,106 ± 13,0.2 ± 0.4 cm^2,128.6 ± 5.3,128.2 ± 9.2,131.6 ± 13.5,"Body weight ([1]; Day 4): 136.8 ± 17.4 g; Body weight ([1]; Day 5): 149.1 ± 16.7 g; Body weight ([1]; Day 6): 149.7 ± 16.8 g; Body weight ([1]; Day 7): 164.1 ± 17.9 g; inhibition in vivo at 30 mg/kg [1, 2]: 52.7%; inhibition in vivo at 30 mg/kg [1, 3]: 91.7%; inhibition in vivo at 30 mg/kg [1, 4]: 65.9%"
"COCCN1C(=O)CCC(N2C(=O)c3cccc(C)c3C2=O)C1=O (stereo not drawn) [Example 24, 4-methyl-2-(1-(2-methoxyethyl)-2,6-dioxopiperidin-3-yl)-isoindolin-1,3-dione]",18.4 ± 0.7,22.4 ± 1.0,23.4 ± 1.0,23.6 ± 0.9,24.3 ± 0.6,24.7 ± 0.6,24.8 ± 1.5,17.7 ± 0.2,22.3 ± 0.7,24.5 ± 1.0,25.2 ± 1.0,27.2 ± 1.3,28.1 ± 2.0,28.9 ± 1.9,0.8 ± 0.7,99 ± 18,0.3 ± 0.3 cm^2,129.1 ± 5.5,130.9 ± 10.4,133.2 ± 14.5,"Body weight ([1]; Day 4): 135.3 ± 13.6 g; Body weight ([1]; Day 5): 144.9 ± 12.6 g; Body weight ([1]; Day 6): 145.9 ± 13.3 g; Body weight ([1]; Day 7): 165.6 ± 12.1 g; inhibition in vivo at 30 mg/kg [1, 2]: 62.2%; inhibition in vivo at 30 mg/kg [1, 3]: 87.5%; inhibition in vivo at 30 mg/kg [1, 4]: 74.1%"
"COCCN1C(=O)CCC(N2C(=O)c3cccc(O)c3C2=O)C1=O (stereo not drawn) [Example 23, 4-hydroxy-2-(1-(2-methoxyethyl)-2,6-dioxopiperidin-3-yl)isoindolin-1,3-dione]",19.1 ± 0.6,22.4 ± 0.4,23.0 ± 0.1,23.0 ± 0.1,24.6 ± 0.4,24.8 ± 0.7,24.6 ± 0.4,19.4 ± 0.8,24.6 ± 1.2,24.5 ± 0.6,24.5 ± 0.6,25.4 ± 1.2,28.1 ± 0.8,29.0 ± 0.8,0.8 ± 0.7,105 ± 12,0.2 ± 0.3# cm^2,126.6 ± 8.5,123.2 ± 9.0,123.9 ± 7.6,"Body weight ([1]; Day 4): 136.5 ± 11.8 g; Body weight ([1]; Day 5): 148.1 ± 14.5 g; Body weight ([1]; Day 6): 152.1 ± 15.9 g; Body weight ([1]; Day 7): 166.8 ± 12.8 g; inhibition in vivo at 30 mg/kg [1, 2]: 62.2%; inhibition in vivo at 30 mg/kg [1, 3]: 91.7%; inhibition in vivo at 30 mg/kg [1, 4]: 67.1%"
"COCCN1C(=O)CCC(N2C(=O)c3c(N)ccc(O)c3C2=O)C1=O (stereo not drawn) [Example 10, 4-amino-7-hydroxy-2-(1-(2-methoxyethyl)-2,6-dioxopiperidin-3-yl)isoindolin-1,3-dione]",19.2 ± 0.5,21.9 ± 0.4,22.4 ± 0.2,22.4 ± 0.2,22.9 ± 0.6,24.1 ± 1.5,24.2 ± 1.8,19.4 ± 0.3,24.4 ± 0.6,25.5 ± 0.9,25.5 ± 0.9,26.8 ± 0.9,29.2 ± 0.7,30.3 ± 0.7,0.5 ± 0.5,93 ± 12,0.2 ± 0.5# cm^2,122.4 ± 6.7,122.1 ± 8.0,126.6 ± 9.8,"Body weight ([1]; Day 4): 136.9 ± 12.5 g; Body weight ([1]; Day 5): 143.7 ± 18.2 g; Body weight ([1]; Day 6): 144.9 ± 19.7 g; Body weight ([1]; Day 7): 160.8 ± 25.7 g; inhibition in vivo at 30 mg/kg [1, 2]: 81.1%; inhibition in vivo at 30 mg/kg [1, 3]: 91.7%; inhibition in vivo at 30 mg/kg [1, 4]: 81.2%"
